Active and inactive are the calls of the source. No rule for the calls is given here; tested in parental BL2 cells.
system: not listed separately; assay: loss of cell viability by ATP content – CellTiter-Glo, cytotoxicity control, dose response (AID 1259333); details: cytotoxicity, CellTiter-Glo ATP luminescence; at 3.5 µM (top of the series);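 as to activity change, negative = cytotoxicity: 0% = vehicle neutral controls and -100% = reference inhibitor positive controls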

Row | SMILES | activity change, negative = cytotoxicity
1 | C[C@@H]1CN([C@@H](C)CO)C(=O)Cc2cc(NS(=O)(=O)c3ccccc3)ccc2O[C@H]1CN(C)Cc1ccc(Cl)c(Cl)c1 | 24.1% (inactive)

same assay, conditions: cytotoxicity, CellTiter-Glo ATP luminescence; at 10 µM (top of the series)

Row | SMILES | activity change, negative = cytotoxicity
2 | Cc1nc(-c2ccc(OCC(C)C)c(C#N)c2)sc1C(=O)O | 23.3% (inactive)
3 | COc1ccc(CN2CC3(CN(C(=O)Cc4ccccc4)C3)c3c([nH]c4cc(OC)ccc34)[C@H]2CO)cc1 | 21.8% (inactive)
4 | COc1ccc(C(=O)/C=C/C(=O)N(CC(=O)NC2CCCCC2)Cc2ccc(F)cc2)c(O)c1 | 46.2% (inactive)
5 | CS(=O)(=O)c1ccc(C(=O)OCC(=O)NC(=O)C2COc3ccccc3O2)cc1[N+](=O)[O-] (configuration not stated) | 25.3% (inactive)
6 | C=C1C(=O)OC2CC1C(O)CC(C)=CCCC(C)=CC(O)CC2C (configuration not stated) | 35.5% (inactive)
7 | COc1ccc2cc(-c3cc(C(=O)O)c4ccccc4n3)ccc2c1 | 6.64% (inactive)
8 | c1ccc(CCSc2nccn2-c2ccccc2)cc1 | 33.3% (inactive)
9 | Cc1cccc(-c2ccc(C3[C@@H]4CN(C(=O)Nc5ccc(C(F)(F)F)cc5)C[C@H]3N4)cc2)c1 (some centres not stated) | 26.3% (inactive)
10 | CC(C)Cc1ccc(C(C)/C=C2/CCC(CN3CCCCC3)C2=O)cc1 (configuration not stated) | 26.2% (inactive)
11 | CC1CCOC(=O)C=CC=CC(=O)OC2CC3OC4C5OC5(C)C(O)CC4(COC(=O)C1O)C2(C)C31CO1 (configuration not stated) | 6.8% (inactive)
12 | CC(=O)NC12CC3CC(C1)CC(C(=O)OCC(=O)c1ccc4c(c1)OCCO4)(C3)C2 | 20.6% (inactive)
13 | CC(C)(C)NCC(=Cc1ccccc1)C(=O)c1ccccc1 | 103% (inactive)
14 | O=C(C1CCOCC1)N1CC(=O)N2[C@H](C1)[C@H](c1ccc(C#CCc3ccccc3)cc1)[C@@H]2CO | 95.5% (inactive)
15 | CC12CN3CC(C)(CN(C1)C3c1ccc3c(c1)OCO3)C2=O (configuration not stated) | 48.6% (inactive)
16 | C[C@H]1CN([C@@H](C)CO)C(=O)c2cccc(NC(=O)Nc3ccc(F)cc3)c2O[C@H]1CN(C)S(=O)(=O)c1ccc(Cl)cc1 | 55% (inactive)
17 | Cc1ccc2nc(C(F)(F)F)c(C#N)c(N)c2c1 | 1.7% (inactive)
18 | Oc1ccc(Cc2ccccc2)c2cccnc12 | 41.6% (inactive)
19 | Cc1csc(NC(=O)c2ccc(N3CCCC3=O)cc2)n1 | 23.5% (inactive)

system: cytotoxicity, CellTiter-Glo ATP luminescence; assay: as above; details: not given

Row | SMILES | AC50
20 | Cc1noc(C)c1S(=O)(=O)Nc1ccc2c(c1)C(=O)N([C@H](C)CO)C[C@H](C)[C@@H](CN(C)C(=O)Nc1cccc3ccccc13)OCCCC[C@H](C)O2 | > 20 µM (inactive)
21 | C[C@@H]1CN([C@@H](C)CO)C(=O)c2c(c3ccccc3n2C)-c2ccccc2CO[C@H]1CN(C)C(=O)Nc1cccc(C(F)(F)F)c1 | 1.4 µM
22 | C[C@@H]1CN([C@H](C)CO)C(=O)c2ccccc2-c2ccccc2CO[C@@H]1CN(C)Cc1ccccc1C(F)(F)F | 6.93 µM
23 | O=C(Nc1ccccc1F)N1CCCCN2[C@H](CO)[C@H](c3ccc(/C=C/c4ccccc4)cc3)[C@H]2C1 | > 20 µM (inactive)
24 | COC(=O)c1ccccc1-c1c2ccc(=N)cc-2oc2cc(N)ccc12 | > 20 µM (inactive)
25 | COC(=O)C[C@](O)(CCCC(C)(C)O)C(=O)O[C@@H]1C(OC)=C[C@]23CCCN2CCc2cc4c(cc2[C@H]13)OCO4 | > 20 µM (inactive)
26 | Cc1c(C(=O)c2cccc3ccccc23)c2cccc3c2n1[C@H](CN1CCOCC1)CO3 | 3.44 µM
27 | COc1cccc(NC(=O)N2CC(=O)N3[C@H](CO)[C@@H](c4ccc(C#CCC5CCCC5)cc4)[C@H]3C2)c1 | 4.13 µM
28 | C[C@H](CO)N1C[C@H](C)[C@@H](CN(C)Cc2cccc(C(F)(F)F)c2)OCc2ccccc2-c2c(n(C)c3ccccc23)C1=O | 6.4 µM
29 | COc1ccc(/C=C/C(=O)Nc2ccccc2C(=O)O)cc1OC | > 20 µM (inactive)
30 | COC(=O)c1ccc2nc(NC(=O)C(C)(C)C)sc2c1 | 7.83 µM
31 | CC(C)(C)OC(=O)CC(S(=O)(=O)c1ccccc1)S(=O)(=O)c1ccccc1 | 6.37 µM
32 | Cc1cc(C(=O)COC(=O)c2ccco2)c(C)n1Cc1ccco1 | > 20 µM (inactive)
33 | CC(=O)NCCCC(=O)NC(CCC(=O)OCc1ccccc1)C(=O)OCc1ccccc1 (configuration not stated) | 9.31 µM
34 | N#C[C@H]1[C@H](c2ccc(C#CC3CCCCC3)cc2)[C@H](CO)N1C(=O)Nc1ccc(F)cc1 | > 20 µM (inactive)
35 | CCCNC(=O)N1[C@H](C#N)[C@H](c2ccc(C3=CCCCC3)cc2)[C@@H]1CO | > 20 µM (inactive)
36 | CC1CC(C)(O)CC(C(O)CC2CC(=O)NC(=O)C2)C1=O (configuration not stated) | 7.54 µM
37 | COc1ccc(C#Cc2ccc([C@H]3[C@@H](CO)N4CCCCN(S(=O)(=O)c5cn(C)cn5)C[C@H]34)cc2)cc1 | 10.8 µM
38 | Clc1ccc(COC(Cn2ccnc2)c2ccc(Cl)cc2Cl)c(Cl)c1 (configuration not stated) | 8.13 µM
39 | COc1ccc2c3c([nH]c2c1)[C@H](CO)N(C(=O)Nc1ccc(F)cc1)CC31CCN(C(=O)c2ccccc2F)CC1 | 8.44 µM
40 | c1ccc2nc(-c3nc4ccccc4o3)ccc2c1 | > 20 µM (inactive)

Row | SMILES | AC50
41 | CCCNC(=O)N1[C@@H](C#N)[C@H](c2ccc(-c3cccc(OC)c3)cc2)[C@@H]1CO | > 20 µM (inactive)
42 | COc1ccc(/C=N/Nc2ncccc2[N+](=O)[O-])c(OC)c1 | 5.79 µM
43 | COc1ccc(CNCCC(c2ccc(F)cc2)c2ccc(OC(C)C)cc2)cc1OC (configuration not stated) | 5.85 µM
44 | C[C@H]1O[C@@H](O[C@H]2[C@@H](O)C[C@H](O[C@H]3[C@@H](O)C[C@H](O[C@H]4CC[C@]5(C)C6C[C@@H](O)[C@]7(C)[C@@H](C8=CC(=O)OC8)CC[C@]7(O)C6CC[C@@H]5C4)O[C@@H]3C)O[C@@H]2C)C[C@H](O)[C@@H]1O (some centres not stated) | 2.71 µM
45 | CN(C)c1ccc(C(=C2C=CC(=[N+](C)C)C=C2)c2ccc(N(C)C)cc2)cc1 | 0.492 µM
46 | CCSc1ccc(-c2cc(NC=O)c3ncc(-c4cccc(C(=O)N(C)C)c4)n3c2)cc1 | > 20 µM (inactive)
47 | COc1ccc(NC(=O)O/N=C/c2c(C)nn(C(C)(C)C)c2C)cc1 | 7.85 µM
48 | CCN(CC)CCCNc1nc2ccccc2c2[nH]c3ccc(OC)cc3c12 | 6.93 µM
49 | COc1ccc(CN2CC3(CN(C(=O)Cc4ccccc4)C3)c3c([nH]c4cc(OC)ccc34)[C@@H]2CO)cc1 | 9.43 µM
50 | CC1=CC(C)(C)N=C(Nc2nc(C)c3cc(C)cc(C)c3n2)N1 | 1.46 µM
51 | CCc1cc2c(=O)c(-c3ccc4c(c3)OCCO4)coc2c(CN2CCCCC2C)c1O (configuration not stated) | 8.84 µM
52 | CC(C)C#Cc1ccc([C@H]2[C@@H](CO)N(C(=O)c3ccccn3)[C@H]2C#N)cc1 | > 20 µM (inactive)
53 | C[C@@H]1CN([C@@H](C)CO)C(=O)c2ccccc2-c2ccccc2CO[C@@H]1CN(C)Cc1ccccc1C(F)(F)F | > 20 µM (inactive)
54 | COCC(C)n1c(C)cc(C(=O)COC(=O)c2cccn2C)c1C (configuration not stated) | > 7 µM (inactive)
55 | COCC(=O)N1[C@H](C#N)[C@H](c2ccc(C#Cc3ccccc3F)cc2)[C@H]1CO | 11.5 µM
56 | O=C(Nc1ccccc1)N1CC(=O)N2[C@H](CO)[C@@H](c3ccc(C#CC4CCCCC4)cc3)[C@H]2C1 | > 20 µM (inactive)
57 | CCCC(C)Sc1nc2c([nH]1)c(=S)n(C)c(=O)n2C (configuration not stated) | 8.95 µM
58 | O=C1NC2c3c(I)sc(I)c3C(=O)C2O1 (configuration not stated) | 6.34 µM
59 | CC12CCC3C(CCC4(O)CC(O)CCC34C=NO)C1(O)CCC2C1=COC(=O)C1 (configuration not stated) | 0.322 µM
60 | CC(C)(C)c1cc(C=C(C#N)C#N)cc(C(C)(C)C)c1O | > 20 µM (inactive)
61 | NC(=O)c1c(Br)n(C2OC(CO)C(O)C2O)c2ncnc(N)c12 (configuration not stated) | 3.14 µM

Row | SMILES | AC50
62 | Cc1noc(C)c1S(=O)(=O)N(C)C[C@H]1OCc2ccccc2-c2c(n(C)c3ccccc23)C(=O)N([C@@H](C)CO)C[C@H]1C | 10.1 µM
63 | COc1cccc2c1C(=O)c1c(O)c3c(c(O)c1C2=O)C[C@@](O)(C(C)=O)C[C@@H]3OC1CC(N)C(O)C(C)O1 (some centres not stated) | 2.72 µM
64 | Cc1ccc(-c2cc(C(=O)N3CC(C)OC(C)C3)c3ccccc3n2)o1 (configuration not stated) | > 20 µM (inactive)
65 | Cc1cnc(NC(=O)c2ccccn2)s1 | 7.7 µM
66 | Oc1c(Cl)cc(Cl)c(Cl)c1Cc1c(O)c(Cl)cc(Cl)c1Cl | 10.2 µM
67 | CCN(CC)c1ccc(C(NC(=O)C(C)C)c2ccc3cccnc3c2O)cc1 (configuration not stated) | 9.15 µM
68 | Cc1ccc2c(=O)c3ccccc3n(CCCN)c2c1C | 2.79 µM
69 | C[C@H](CO)N1C[C@H](C)[C@H](CN(C)C(=O)Nc2cccc(Cl)c2Cl)OCc2ccccc2-c2c(n(C)c3ccccc23)C1=O | 2.51 µM
70 | COc1ccc(C(=O)O/N=C2\C(=O)N(C)c3ccccc32)cc1 | 2 µM
71 | C[C@H]1CN([C@@H](C)CO)C(=O)c2c(c3ccccc3n2C)-c2ccccc2CO[C@H]1CN(C)C(=O)Nc1cccc(C(F)(F)F)c1 | 0.878 µM
72 | C[C@H]1CN([C@@H](C)CO)C(=O)c2ccccc2-c2ccccc2CO[C@@H]1CN(C)Cc1ccccc1C(F)(F)F | 10.5 µM
73 | C[C@@H]1CN([C@@H](C)CO)C(=O)c2ccccc2-c2ccccc2CO[C@@H]1CN(C)Cc1ccc(Oc2ccccc2)cc1 | 8.71 µM
74 | Cn1cnc([N+](=O)[O-])c1S(=O)(=O)Oc1cccc2ccccc12 | 1.91 µM
75 | N#C[C@H]1[C@H](c2ccc(C#Cc3ccccc3F)cc2)[C@@H](CO)N1C(=O)C1CC1 | > 20 µM (inactive)
76 | CCN1/C(=C/c2sc(-c3ccccc3C)c[n+]2C)Sc2ccccc21 | 9.06 µM
77 | Fc1ccccc1CNCCC(Cc1ccccc1)c1ccc2c(c1)OCO2 (configuration not stated) | > 20 µM (inactive)
78 | C[C@@H]1CN([C@H](C)CO)C(=O)c2c(c3ccccc3n2C)-c2ccccc2CO[C@@H]1CN(C)C(=O)c1cc(Cl)cc(Cl)c1 | 9.93 µM
79 | C[C@H]1O[C@@H](O[C@H]2[C@@H](O)C[C@H](O[C@H]3[C@@H](O)C[C@H](O[C@H]4CC[C@]5(C)C6CC[C@]7(C)[C@@H](C8=CC(=O)OC8)CC[C@]7(O)C6CC[C@@H]5C4)O[C@@H]3C)O[C@@H]2C)C[C@H](O)[C@@H]1O (some centres not stated) | 2.2 µM
80 | O=C1c2c(O)ccc(O)c2C(=O)c2c(NCCNCCO)ccc(NCCNCCO)c21 | 5.78 µM
81 | CSc1ccc2c(c1)N(CCC1CCCCN1C)c1ccccc1S2 (configuration not stated) | 8.67 µM
82 | Cc1ccc(CN2CC(C(=O)Nc3ncc(C)s3)CC2=O)cc1 (configuration not stated) | > 20 µM (inactive)
